Reference: ChEMBL document CHEMBL5154688, “Design, Synthesis, and Characterization of I-BET567, a Pan-Bromodomain and Extra Terminal (BET) Bromodomain Oral Candidate” (J Med Chem, 2022)
The source made the active and inactive calls. The rule behind the calls is not given here.

Experiments:
Cytochrome P450 3A4 = Cytochrome P450 3A4 (Homo sapiens, UniProt P08684); experiment: Inhibition of CYP3A4 (unknown origin); assay type: ADME
[1] = Antineoplastic activity against human NMC 11060 cells xenografted in SCID mouse assessed as reduction in tumor volume at 10 mg/kg, po for 20 days measured at 20 days of post randomization relative to control; assay type: functional; settings: NMC 11060 cell, 480 h, time 20 day
[2] = Antineoplastic activity against human NMC 11060 cells xenografted in SCID mouse assessed as reduction in tumor volume at 10 mg/kg, po for 20 days measured at 13 days of post randomization relative to control; assay type: functional; settings: NMC 11060 cell, 480 h, time 20 day
[3] = target: T1, Bromodomain-containing protein 4 (Homo sapiens, UniProt O60885); experiment: Inhibition of BRD4 BD2 (unknown origin) incubated for 30 mins in presence of fluorescent ligand by TR-FRET method
[4] = target: Voltage-gated inwardly rectifying potassium channel KCNH2 (Homo sapiens, UniProt Q12809); experiment: Inhibition of hERG; assay type: toxicity
Sequence of Voltage-gated inwardly rectifying potassium channel KCNH2 (Q12809 whole entry): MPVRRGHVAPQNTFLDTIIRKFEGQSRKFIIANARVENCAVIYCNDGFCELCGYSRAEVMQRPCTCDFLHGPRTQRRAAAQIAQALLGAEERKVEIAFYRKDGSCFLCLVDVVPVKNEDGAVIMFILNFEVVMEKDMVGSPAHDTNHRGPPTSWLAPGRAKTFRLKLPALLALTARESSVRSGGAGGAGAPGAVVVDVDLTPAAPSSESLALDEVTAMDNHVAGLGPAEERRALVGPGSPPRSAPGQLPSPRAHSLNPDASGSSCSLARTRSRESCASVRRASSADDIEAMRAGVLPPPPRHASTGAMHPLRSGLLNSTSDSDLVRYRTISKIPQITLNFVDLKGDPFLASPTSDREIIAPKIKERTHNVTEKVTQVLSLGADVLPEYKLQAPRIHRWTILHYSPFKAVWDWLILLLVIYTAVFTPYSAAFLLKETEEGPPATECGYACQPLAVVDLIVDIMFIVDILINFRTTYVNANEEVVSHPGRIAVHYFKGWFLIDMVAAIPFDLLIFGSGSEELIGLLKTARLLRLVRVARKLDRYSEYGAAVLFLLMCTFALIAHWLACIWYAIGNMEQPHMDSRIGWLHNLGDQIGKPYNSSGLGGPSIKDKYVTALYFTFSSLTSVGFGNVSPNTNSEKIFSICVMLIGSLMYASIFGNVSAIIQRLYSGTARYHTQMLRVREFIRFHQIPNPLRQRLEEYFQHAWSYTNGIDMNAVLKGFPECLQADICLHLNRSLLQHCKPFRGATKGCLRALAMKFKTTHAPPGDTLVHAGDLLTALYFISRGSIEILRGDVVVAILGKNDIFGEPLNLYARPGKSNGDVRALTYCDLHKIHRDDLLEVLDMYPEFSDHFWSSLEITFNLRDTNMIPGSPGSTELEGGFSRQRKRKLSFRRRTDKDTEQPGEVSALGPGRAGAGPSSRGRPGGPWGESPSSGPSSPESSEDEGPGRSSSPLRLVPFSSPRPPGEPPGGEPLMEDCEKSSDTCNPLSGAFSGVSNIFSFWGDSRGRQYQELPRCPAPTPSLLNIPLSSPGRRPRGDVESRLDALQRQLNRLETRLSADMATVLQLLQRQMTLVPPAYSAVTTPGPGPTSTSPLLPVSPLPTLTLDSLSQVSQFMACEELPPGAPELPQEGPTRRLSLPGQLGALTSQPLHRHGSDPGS

[5] = Toxicity in SCID mouse xenografted with human NMC 11060 cells assessed as tolerability at 3 to 30 mg/kg, po for 20 days; assay type: organism-based; settings: in vivo, 480 h, dose 3-30 mg/kg, time 20 day
[6] = Unbound fraction in Beagle dog blood at 3 mg/kg, po or 1.0 mg/kg, iv by LC-MS/MS analysis; assay type: ADME, organism-based, Canis lupus familiaris
[7] = target: Histone acetyltransferase p300 (Homo sapiens, UniProt Q09472); experiment: Binding affinity to EP300 (unknown origin) assessed as dissociation constant
Sequence of Histone acetyltransferase p300 (Q09472 whole entry): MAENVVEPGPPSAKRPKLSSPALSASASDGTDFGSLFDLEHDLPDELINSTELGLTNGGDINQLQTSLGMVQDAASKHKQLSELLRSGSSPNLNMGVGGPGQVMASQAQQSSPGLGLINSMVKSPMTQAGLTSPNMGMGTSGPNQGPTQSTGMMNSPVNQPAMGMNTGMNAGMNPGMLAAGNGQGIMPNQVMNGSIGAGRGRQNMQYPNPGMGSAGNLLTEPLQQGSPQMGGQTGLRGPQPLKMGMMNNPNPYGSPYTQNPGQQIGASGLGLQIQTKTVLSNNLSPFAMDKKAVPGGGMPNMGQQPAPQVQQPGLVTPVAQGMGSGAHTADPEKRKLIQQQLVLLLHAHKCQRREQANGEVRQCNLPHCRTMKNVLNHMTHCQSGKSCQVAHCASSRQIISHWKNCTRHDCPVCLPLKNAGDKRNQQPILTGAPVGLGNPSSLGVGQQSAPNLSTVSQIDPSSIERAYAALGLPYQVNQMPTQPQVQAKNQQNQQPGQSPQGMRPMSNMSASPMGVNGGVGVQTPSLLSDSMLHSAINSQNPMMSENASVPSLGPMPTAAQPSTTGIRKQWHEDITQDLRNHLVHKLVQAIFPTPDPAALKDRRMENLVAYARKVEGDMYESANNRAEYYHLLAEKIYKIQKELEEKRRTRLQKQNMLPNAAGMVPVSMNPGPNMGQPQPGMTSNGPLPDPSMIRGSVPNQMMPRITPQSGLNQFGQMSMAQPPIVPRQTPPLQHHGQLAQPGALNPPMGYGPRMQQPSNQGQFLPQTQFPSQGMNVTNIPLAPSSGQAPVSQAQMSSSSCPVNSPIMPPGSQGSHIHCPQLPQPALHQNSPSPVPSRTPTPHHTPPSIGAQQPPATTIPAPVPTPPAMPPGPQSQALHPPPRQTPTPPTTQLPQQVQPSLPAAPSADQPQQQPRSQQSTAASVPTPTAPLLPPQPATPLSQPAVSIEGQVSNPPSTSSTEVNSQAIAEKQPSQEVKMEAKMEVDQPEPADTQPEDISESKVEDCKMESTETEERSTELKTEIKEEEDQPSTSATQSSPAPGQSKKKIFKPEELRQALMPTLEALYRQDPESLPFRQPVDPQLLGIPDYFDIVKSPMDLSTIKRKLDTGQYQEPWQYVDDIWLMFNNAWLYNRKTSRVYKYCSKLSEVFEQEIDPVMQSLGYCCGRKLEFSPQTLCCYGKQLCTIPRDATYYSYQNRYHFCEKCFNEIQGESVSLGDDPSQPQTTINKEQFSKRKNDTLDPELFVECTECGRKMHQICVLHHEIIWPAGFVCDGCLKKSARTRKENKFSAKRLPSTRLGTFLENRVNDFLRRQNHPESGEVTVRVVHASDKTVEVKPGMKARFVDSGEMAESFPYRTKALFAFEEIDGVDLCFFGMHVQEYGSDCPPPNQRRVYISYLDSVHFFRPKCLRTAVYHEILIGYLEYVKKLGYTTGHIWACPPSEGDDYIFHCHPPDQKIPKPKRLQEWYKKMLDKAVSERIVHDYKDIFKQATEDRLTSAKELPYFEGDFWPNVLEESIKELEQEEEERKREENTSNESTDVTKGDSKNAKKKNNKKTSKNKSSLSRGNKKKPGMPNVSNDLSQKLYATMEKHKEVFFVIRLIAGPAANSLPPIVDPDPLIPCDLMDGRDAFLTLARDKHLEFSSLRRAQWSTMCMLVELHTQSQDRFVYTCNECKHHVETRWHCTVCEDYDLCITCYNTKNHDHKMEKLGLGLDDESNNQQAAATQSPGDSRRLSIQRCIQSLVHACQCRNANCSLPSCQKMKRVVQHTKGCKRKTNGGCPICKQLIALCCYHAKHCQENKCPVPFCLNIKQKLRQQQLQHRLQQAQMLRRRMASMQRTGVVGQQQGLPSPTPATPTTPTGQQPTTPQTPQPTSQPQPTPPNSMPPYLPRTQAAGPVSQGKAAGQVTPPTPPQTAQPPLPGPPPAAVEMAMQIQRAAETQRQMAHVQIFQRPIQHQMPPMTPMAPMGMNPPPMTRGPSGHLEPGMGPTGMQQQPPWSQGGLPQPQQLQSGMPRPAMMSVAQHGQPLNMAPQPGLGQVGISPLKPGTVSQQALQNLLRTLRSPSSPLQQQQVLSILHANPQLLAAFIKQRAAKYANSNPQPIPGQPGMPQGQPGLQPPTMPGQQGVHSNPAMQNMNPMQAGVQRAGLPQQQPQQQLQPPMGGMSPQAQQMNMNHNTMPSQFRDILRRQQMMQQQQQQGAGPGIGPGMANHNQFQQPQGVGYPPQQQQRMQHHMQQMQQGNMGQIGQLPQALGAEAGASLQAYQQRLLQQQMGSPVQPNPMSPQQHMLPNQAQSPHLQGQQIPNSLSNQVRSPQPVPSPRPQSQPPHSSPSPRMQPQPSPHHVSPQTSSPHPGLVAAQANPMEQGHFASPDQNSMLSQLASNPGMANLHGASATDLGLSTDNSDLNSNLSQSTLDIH

[8] = target: Bromodomain-containing protein 2 (Homo sapiens, UniProt P25440); experiment: Binding affinity to BRD2 BD1 (unknown origin) assessed as dissociation constant
Sequence of Bromodomain-containing protein 2 (P25440 whole entry): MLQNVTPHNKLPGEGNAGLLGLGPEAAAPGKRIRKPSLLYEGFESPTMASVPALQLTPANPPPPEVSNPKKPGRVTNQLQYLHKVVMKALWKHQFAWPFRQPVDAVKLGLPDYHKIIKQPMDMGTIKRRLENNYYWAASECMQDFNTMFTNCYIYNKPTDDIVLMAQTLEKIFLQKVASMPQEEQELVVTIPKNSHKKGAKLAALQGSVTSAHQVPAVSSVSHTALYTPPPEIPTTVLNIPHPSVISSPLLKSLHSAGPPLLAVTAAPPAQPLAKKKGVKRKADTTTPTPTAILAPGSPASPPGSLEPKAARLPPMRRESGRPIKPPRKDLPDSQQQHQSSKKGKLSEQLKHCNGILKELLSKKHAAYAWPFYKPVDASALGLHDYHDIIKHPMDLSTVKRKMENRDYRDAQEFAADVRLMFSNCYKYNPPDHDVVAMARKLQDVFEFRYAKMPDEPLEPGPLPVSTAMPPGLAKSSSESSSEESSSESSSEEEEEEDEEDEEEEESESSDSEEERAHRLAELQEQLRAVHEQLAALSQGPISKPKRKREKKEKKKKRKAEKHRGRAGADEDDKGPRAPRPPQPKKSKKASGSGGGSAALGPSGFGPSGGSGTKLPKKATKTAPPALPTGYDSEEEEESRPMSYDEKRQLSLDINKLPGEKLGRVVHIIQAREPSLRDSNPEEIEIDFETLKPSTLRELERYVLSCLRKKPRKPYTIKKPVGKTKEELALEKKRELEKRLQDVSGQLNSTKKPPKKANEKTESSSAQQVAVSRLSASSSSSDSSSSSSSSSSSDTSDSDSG

CREB-binding protein = CREB-binding protein (Homo sapiens, UniProt Q92793); experiment: Binding affinity to CREBBP (unknown origin) assessed as dissociation constant
[9] = target: T1, Bromodomain-containing protein 4; experiment: Binding affinity to BRD4 BD2 (unknown origin) assessed as dissociation constant
[10] = Terminal half life in Beagle dog blood at 3 mg/kg, po or 1.0 mg/kg, iv by LC-MS/MS analysis; assay type: ADME, organism-based, Canis lupus familiaris; settings: read-out: beta t1/2 (converted)
[11] = Antineoplastic activity against human NMC 11060 cells xenografted in SCID mouse assessed as reduction in tumor volume at 10 mg/kg, po for 20 days measured at 15 days of post randomization relative to control; assay type: functional; settings: NMC 11060 cell, 480 h, time 20 day
[12] = Unbound Cmax in SCID mouse xenografted with human NMC 11060 cells at 3 to 30 mg/kg, po for 20 days; assay type: ADME, organism-based; settings: in vivo, 480 h, dose 3-30 mg/kg, time 20 day
[13] = AUC(0 to 72 hrs) in KLH-TNP-induced T-cell dependent immunization CD-1 mouse model at 30 mg/kg, po administered every other day for 14 days; assay type: ADME, organism-based; parameters: dose 30 mg/kg, time 14 day, route po; settings: in vivo
[14] = Antineoplastic activity against human NMC 11060 cells xenografted in SCID mouse assessed as reduction in tumor volume at 30 mg/kg, po for 20 days measured at 6 days of post randomization relative to control; assay type: functional; settings: NMC 11060 cell, 480 h, time 20 day
[15] = AUC(0 to 72 hrs) in KLH-TNP-induced T-cell dependent immunization CD-1 mouse model at 30 mg/kg, po administered every third day for 14 days; assay type: ADME, organism-based; parameters: dose 30 mg/kg, time 14 day, route po; settings: in vivo
Mus musculus = experiment: Antiinflammatory activity in KLH-TNP-induced T-cell dependent immunization CD-1 mouse model assessed as reduction in circulating IgG1 at 30 mg/kg, po administered every other day for 14 days followed by administration of KLH-TNP after 1 hr; assay type: functional; settings: CD-1, T-cell, 336 h, time 14 day
[16] = target: Bromodomain-containing protein 3 (Homo sapiens, UniProt Q15059); experiment: Binding affinity to BRD3 BD2 (unknown origin) assessed as dissociation constant
[17] = Unbound AUC(0 to 24 hrs) in SCID mouse xenografted with human NMC 11060 cells at 3 to 30 mg/kg, po for 20 days; assay type: ADME, organism-based; settings: in vivo, 480 h, dose 3-30 mg/kg, time 20 day
[18] = Renal clearance in Wistar Han rat at 3 mg/kg, po or 1.3 mg/kg, iv upto 24 hrs by LC-MS/MS analysis; assay type: ADME, organism-based; settings: in vivo
[19] = Oral bioavailability in Beagle dog blood at 3 mg/kg by LC-MS/MS analysis; assay type: ADME, organism-based, Canis lupus familiaris
NUT midline carcinoma = experiment: Antineoplastic activity against human NMC 11060 cells xenografted in SCID mouse assessed as reduction in tumor growth at 3 to 30 mg/kg, po for 20 days; assay type: functional, organism-based; settings: dose 3-30 mg/kg, time 20.0 day
[20] = Antineoplastic activity against human NMC 11060 cells xenografted in SCID mouse assessed as reduction in tumor volume at 30 mg/kg, po for 20 days measured at 8 days of post randomization relative to control; assay type: functional; settings: NMC 11060 cell, 480 h, time 20 day
[21] = Antineoplastic activity against human NMC 11060 cells xenografted in SCID mouse assessed as reduction in tumor volume at 30 mg/kg, po for 20 days measured at 3 days of post randomization relative to control; assay type: functional; settings: NMC 11060 cell, 480 h, time 20 day
[22] = Unbound clearance in Wistar Han rat blood at 3 mg/kg, po or 1.3 mg/kg, iv measured upto 24 hrs by LC-MS/MS analysis; assay type: ADME, organism-based; settings: in vivo
[23] = Unbound clearance in Beagle dog blood at 3 mg/kg, po or 1.0 mg/kg, iv by LC-MS/MS analysis; assay type: ADME, organism-based, Canis lupus familiaris; settings: in vivo
[24] = Volume of distribution at steady state in Beagle dog blood at 3 mg/kg, po or 1.0 mg/kg, iv by LC-MS/MS analysis; assay type: ADME, organism-based, Canis lupus familiaris; settings: in vivo
[25] = target: T2, Bromodomain testis-specific protein (Homo sapiens, UniProt Q58F21); experiment: Binding affinity to BRDT BD1 (unknown origin) assessed as dissociation constant
[26] = Unbound volume of distribution at steady state in Wistar Han rat blood at 3 mg/kg, po or 1.3 mg/kg, iv measured upto 24 hrs by LC-MS/MS analysis; assay type: ADME, organism-based; settings: in vivo
[27] = Intrinsic clearance in human hepatocytes measured after 120 mins by LC-MS/MS analysis; assay type: ADME, cell-based, Hepatocyte; settings: 2 h
[28] = Intrinsic clearance in dog hepatocytes incubated upto 45 mins by LC-MS/MS analysis; assay type: ADME, cell-based, Canis lupus familiaris, Hepatocyte; settings: 0.75 h
[29] = Terminal half life in Wistar Han rat blood at 3 mg/kg, po or 1.3 mg/kg, iv measured upto 24 hrs by LC-MS/MS analysis; assay type: ADME, organism-based; settings: read-out: beta t1/2 (converted)
[30] = Unbound fraction in Wistar Han rat blood at 3 mg/kg, po or 1.3 mg/kg, iv measured upto 24 hrs by LC-MS/MS analysis; assay type: ADME, organism-based
[31] = target: T2, Bromodomain testis-specific protein; experiment: Binding affinity to BRDT BD2 (unknown origin) assessed as dissociation constant
[32] = Antineoplastic activity against human NMC 11060 cells xenografted in SCID mouse assessed as reduction in tumor volume at 10 mg/kg, po for 20 days measured at 8 days of post randomization relative to control; assay type: functional; settings: NMC 11060 cell, 480 h, time 20 day
[33] = Renal clearance in Beagle dog at 3 mg/kg, po or 1.0 mg/kg, iv by LC-MS/MS analysis; assay type: ADME, organism-based, Canis lupus familiaris; settings: in vivo
[34] = Cmax in KLH-TNP-induced T-cell dependent immunization CD-1 mouse model at 30 mg/kg, po administered every third day for 14 days; assay type: ADME, organism-based; parameters: time 14 day, dose 30 mg/kg, route po; settings: in vivo

Sequence of Cytochrome P450 3A4 (P08684 whole entry): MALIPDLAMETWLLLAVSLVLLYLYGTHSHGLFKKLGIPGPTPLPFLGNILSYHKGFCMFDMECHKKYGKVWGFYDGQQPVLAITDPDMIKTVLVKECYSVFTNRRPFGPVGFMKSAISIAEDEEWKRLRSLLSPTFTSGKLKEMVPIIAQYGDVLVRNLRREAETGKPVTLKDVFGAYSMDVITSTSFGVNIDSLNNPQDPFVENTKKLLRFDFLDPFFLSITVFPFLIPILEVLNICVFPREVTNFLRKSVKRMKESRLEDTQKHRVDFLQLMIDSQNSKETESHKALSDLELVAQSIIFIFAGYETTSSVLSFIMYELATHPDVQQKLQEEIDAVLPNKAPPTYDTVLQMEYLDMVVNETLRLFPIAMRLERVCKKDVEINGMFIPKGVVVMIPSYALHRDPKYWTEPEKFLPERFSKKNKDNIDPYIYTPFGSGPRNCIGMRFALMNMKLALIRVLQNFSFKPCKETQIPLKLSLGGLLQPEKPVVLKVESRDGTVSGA

CC(=O)N1c2ccc(C(N)=O)cc2[C@H](Nc2ncc(Cl)cn2)C[C@@H]1C
IC50 (Cytochrome P450 3A4): > 39800 nM | inhibition in vivo at 10 mg/kg [1]: 51% | inhibition in vivo at 10 mg/kg [2]: 56% | IC50 [3]: 63.1 nM | IC50 [4]: > 50100 nM | Activity [5]: Non-Toxic | fraction unbound [6]: 0.41 | Kd [7]: 2510 nM | Kd [8]: 39.8 nM | Kd (CREB-binding protein): 2510 nM | Kd [9]: 5.01 nM | half-life [10]: 1.8 h | inhibition in vivo at 10 mg/kg [11]: 65% | fCmax [12]: 2 µM | AUC at 336 h [13]: 69 µM·h | inhibition in vivo at 30 mg/kg [14]: 70% | AUC at 336 h [15]: 34 µM·h | inhibition in vivo at 30 mg/kg (Mus musculus): 93% | Kd [16]: 6.31 nM | fAUC [17]: 10 µM·h | CL renal at 24 h [18]: 7 mL/min/kg | bioavailability [19]: 98% | Activity (NUT midline carcinoma): Active | inhibition in vivo at 30 mg/kg [20]: 85% | inhibition in vivo at 30 mg/kg [21]: 44% | CL free [22]: 109 mL/min/kg | CL free [23]: 20 mL/min/kg | Vdss [24]: 1.2 L/kg | Kd [25]: 25.1 nM | Vduss [26]: 10.4 L/kg | CLH [27]: < 0.87 mL/min/g | CLH [28]: < 1.26 mL/min/g | half-life [29]: 1.6 h | fraction unbound at 24 h [30]: 0.23 | Kd [31]: 25.1 nM | inhibition in vivo at 10 mg/kg [32]: 62% | CL renal [33]: 6.9 mL/min/kg | Cmax [34]: 8.5 µM
